From US9394555B2, “Compositions comprising a polypeptide having cellulolytic enhancing activity and a dioxy compound and uses thereof” (priority 2010, dated 2016)

Legend:
[1] = system: T. terrestris GH61E polypeptide; assay: Microcrystalline cellulose conversion assay I (Examples 8, 9) with T. terrestris GH61E polypeptide; format: biochemical, Thielavia terrestris; conditions: dioxy compound 0.3% w/w + T. terrestris GH61E polypeptide (10 mg/g) + endoglucanase II + beta-glucosidase (5 mg/g each), 96 hours
Method: (§1) A 5% microcrystalline cellulose slurry was prepared by addition of 2.5 g of AVICEL®PH101 (Sigma-Aldrich, St. Louis, Mo., USA) to a graduated 50 ml screw-cap conical tube followed by 15 ml of 1 M sodium acetate pH 5 and 1 ml of 100 mM MnSO4 and approximately 20 ml of deionizer water. Each conical tube was then mixed thoroughly by shaking/vortexing, and adjusted to 50 ml total with deionized water and mixed again. Contents of the tube were then quickly transferred to a 100 ml beaker and stirred rapidly with a magnetic stirrer. Five hundred μl aliquots of the 5% AVICEL® slurry were pipetted into wells of a 2.0 ml 96-deepwell plate (Axygen, Union City, Calif., USA) using a 1000 μl micropipette with a wide aperture tip (end of tip cut off about 2 mm from the base). Three hundred μl of either deionized water or a 1% dioxy compound solution (dissolved in deionized water) was added to each well.
(§2) The dioxy compounds assayed include caffeic acid (Sigma-Aldrich, St. Louis, Mo., USA), dichlorophenolindophenol (DCPIP; Sigma-Aldrich, St. Louis, Mo., USA), ethyl gallate (Sigma-Aldrich, St. Louis, Mo., USA), gallic acid (Sigma-Aldrich, St. Louis, Mo., USA), 3,4-dihydroxybenzoic acid (Sigma-Aldrich, St. Louis, Mo., USA), pyrocatechol (Sigma-Aldrich, St. Louis, Mo., USA), pyrogallol (Sigma-Aldrich, St. Louis, Mo., USA), sinapinic acid (3,5 dimethoxy-4-hydroxy cinnamic acid; Apin Chemicals LTD, Abingdon, UK), and tannic acid (Sigma-Aldrich, St. Louis, Mo., USA).
(§3) Enzyme mixtures were prepared and then added simultaneously to all wells in a volume of 200 μl, for a total of 1 ml in each reaction. […] All experiments reported were performed in triplicate.
(§4) After approximately 4 days, the deep-well plate was removed from the incubator and chilled overnight to 4° C. The plate was then mixed well by inversion and briefly centrifuged at 52×g in a SORVALL® RT7 centrifuge (Thermo Fisher Scientific, Waltham, Mass., USA) for 10 seconds. Samples were then mixed by pipetting, and 200 μl from each well were transferred to a MULTISCREEN® HV centrifuge filter plate assembly (Millipore, Bedford, Mass., USA). The centrifuge filter plate assembly was centrifuged at 2000 rpm in a SORVALL® RT7 centrifuge for 20 minutes. […] Sugars were detected using a refractive index detector (Agilent Technologies, Inc., Santa Clara, Calif., USA) with quantification by integration compared to purified sugar standards.
(§5) In this assay only glucose was measured since beta-glucosidase was at high levels in all samples but the controls.
(§6) A limit digest was performed to determine the total concentration accessible glucose equivalents using 100 mg of T. reesei cellulase (CELLIC™ CTec, Novozymes A/S, Bagsvaerd, Denmark) per gram cellulose, Triplicate data points were averaged and standard deviation was calculated.

[2] = system: T. aurantiacus CEL5A endoglucanase II and P. brasilianum CEL3A beta-glucosidase; assay: Microcrystalline cellulose conversion assay I (Examples 8, 9) without GH61 polypeptide; format: biochemical, Thermoascus aurantiacus; Penicillium brasilianum; conditions: dioxy compound 0.3% w/w + endoglucanase II + beta-glucosidase (5 mg/g each), no GH61; 96 hours, at either 50° C. or 60° C.
Method: as §1, §2, §3, §4, §5, §6

[3] = molecular target: T. aurantiacus GH61A polypeptide (Thermoascus aurantiacus, UniProt G3XAP7, N13Y); assay: Microcrystalline cellulose conversion assay II (Examples 10, 11), T. reesei CEL7A cellobiohydrolase I + A. oryzae CEL3A beta-glucosidase; format: biochemical; conditions: 72 hours, 50° C.; for conversion (hydrolysis) of the microcrystalline cellulose: dioxy compound 0.1% w/w alone, no enzymes
Method: A 5% microcrystalline cellulose slurry was prepared by addition of 2.5 g of AVICEL® PH101 to a graduated 50 ml screw-cap conical tube followed by approximately 40 ml of deionized water. Each conical tube was then mixed thoroughly by shaking/vortexing, and adjusted to 50 ml total with deionized water and mixed again. For samples containing dioxy compounds, a similar slurry was prepared by the addition of 100 mg of solid dioxy compound and 2.5 g of AVICEL® PH101 to a graduated 50 ml screw-cap conical tube followed by approximately 40 ml of deionized water. Each conical tube was then mixed thoroughly by shaking/vortexing, and adjusted to 50 ml total with deionized water and mixed again.
The dioxy compounds assayed include caffeic acid, dichlorophenolindophenol (DCPIP), ethyl gallate, gallic acid, 3,4-dihydroxybenzoic acid, pyrocatechol, pyrogallol, sinapinic acid (3,5 dimethoxy-4-hydroxy cinnamic acid), and tannic acid.
In all cases, the contents of the tube (5% microcrystalline cellulose slurry with or without 0.2% dioxy compound) were then quickly transferred to a 100 ml beaker and stirred rapidly with a magnetic stirrer. Five hundred μl aliquots of the 5% AVICEL® slurry were pipetted into wells of a 2.0 ml 96-deepwell plate (Axygen, Union City, Calif.) using a 1000 μl micropipette with a wide aperture tip (end of tip cut off about 2 mm from the base). One hundred μl of deionized water and 300 μl of 3.33 mM MnSO4-500 mM sodium acetate pH 5 were then added to each well. Enzyme mixtures were prepared and then added simultaneously to all wells in a volume of 100 μl, for a total of 1 ml in each reaction. […] All experiments reported were performed in triplicate.
as §4, with “Primary analysis of the hydrolysis reactions was performed using an AGILENT® 1100 HPLC with CHEMSTATION® software equipped with an AMINEX™ HPX-87H column. After” for “After”, “centrifuge” for “centrifuge (Thermo Fisher Scientific, Waltham, Mass., USA)”, “assembly.” for “assembly (Millipore, Bedford, Mass., USA).”, “detector” for “detector (Agilent Technologies, Inc., Santa Clara, Calif., USA)”
All HPLC data processing was performed using MICROSOFT EXCEL™ software. […] In this assay only glucose was measured since beta-glucosidase was at high levels in all samples but the controls. The degree of cellulose conversion was calculated using Equation 1. Triplicate data points were averaged and standard deviation was calculated.
The microcrystalline cellulose hydrolysis assay was performed as described in Example 10.
Data were collected and analyzed, as described in Example 10, after 72 hours of incubation at 50° C.

Chain of T. aurantiacus GH61A polypeptide (G3XAP7 whole entry N13Y): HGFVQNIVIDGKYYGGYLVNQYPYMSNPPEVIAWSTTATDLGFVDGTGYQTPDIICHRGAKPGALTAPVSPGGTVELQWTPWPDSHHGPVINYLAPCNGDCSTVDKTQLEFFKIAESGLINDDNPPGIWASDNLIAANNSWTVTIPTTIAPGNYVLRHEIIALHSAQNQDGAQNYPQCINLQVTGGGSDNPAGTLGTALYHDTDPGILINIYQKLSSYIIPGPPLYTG

**Q.** How did the “conversion of microcrystalline cellulose” value ([1]; 50° C.) turn out when CCOC(=O)c1cc(O)c(O)c(O)c1 [ethyl gallate] was run?
**A.** Its value is 6.0±0.3%.

**Q.** What about the “conversion of microcrystalline cellulose” value ([1]; 60° C.) of the same compound?
**A.** The value was 6.2±0.1%.

**Q.** What about the “change in conversion of microcrystalline cellulose compared to the enzymes in the absence of the dioxy compound” value [2] of the same compound?
**A.** The value was “no significant change”.

**Q.** And the “conversion (hydrolysis) of the microcrystalline cellulose” value [3]?
**A.** The value was “no significant hydrolysis”.

**Q.** What does the source list for Oc1ccccc1O [pyrocatechol]?
**A.** conversion of microcrystalline cellulose ([1]; 50° C.): 7.4±0.2%; conversion of microcrystalline cellulose ([1]; 60° C.): 7.9±0.1%; change in conversion of microcrystalline cellulose compared to the enzymes in the absence of the dioxy compound [2]: no significant change; conversion of the microcrystalline cellulose ([3]; dioxy compound 0.1% w/w + cellobiohydrolase I + beta-glucosidase (5 mg/g each), no GH61): no significant change; conversion (hydrolysis) of the microcrystalline cellulose [3]: no significant hydrolysis

**Q.** With Oc1cccc(O)c1O [pyrogallol] as the compound, how does the “conversion of microcrystalline cellulose” value ([1]; 50° C.) read?
**A.** Its value is 7.1±0.5%.

**Q.** What about the “conversion of microcrystalline cellulose” value ([1]; 60° C.) of the same compound?
**A.** Its value is 9.5±0.1%.

**Q.** What about the “change in conversion of microcrystalline cellulose compared to the enzymes in the absence of the dioxy compound” value [2] of the same compound?
**A.** The value was “no significant change”.

**Q.** What about the “conversion (hydrolysis) of the microcrystalline cellulose” value [3] of the same compound?
**A.** Its value is “no significant hydrolysis”.
